Assay results: patent US5607836A, “Methods of detecting compounds which bind to the P2U receptor” (The Curators of the University of Missouri, priority 1995, dated 1997)
pEC50: −log10 of the molar value.

Tests used:
[1] = tested on: P2T receptor of K562 cells; test: cytoplasmic free calcium (fura-2) in untransfected or vector-transfected K562 cells; type: cell-based, human; details: untransfected K562 cells; for elevation of [Ca^2+ ]i in untransfected K562 cells (P2T receptor): 1 mM for ATP, UTP, ATPγS, BzATP, BzUTP; for effect on [Ca^2+ ]i in untransfected K562 cells: concentrations as high as 1 mM
Excerpt: (§1) Stable and Transient Transfections. To generate stable transfectants expressing the P2U receptor, K562 cells were transfected by electroporation (F. Toneguzzo et al., Mol. Cell. Biol. 6, 703 (1986)) with the neomycin-resistance plasmid pP2R1. pP2R1 is pRc/CMV containing a ~2.4 kb HindIII-NotI fragment of the P2U receptor cDNA, missing the first 6 nucleotides of the 5' untranslated region of the full length cDNA. control cells were stably transfected with pRc/CMV. Cells were sedimented at 200×g for 5 min at room temperature, rinsed once with phosphate-buffered saline (10 mM NaH2 PO4, pH 7.4, 120 mM NaCl, 5 mM KCl), and resuspended in phosphate-buffered saline at a final concentration of 4×10^7 cells/ml. The cells were chilled on ice for 10 min and then transferred in 0.5 ml aliquots to prechilled electroporation cuvettes. DNA (40 μg of pP2R1 linearized with PvuI) was added to the cell suspension, the cells were subjected to a single electrical pulse (1 kV, 25 μF) and the cuvettes were placed on ice. After 10 min, growth medium was added and the cells were incubated at 37° C. Fresh growth medium supplemented with 0.7 mg/ml G418 was added 48 h […], and the cells were incubated for 2 weeks to select for stable transfectants expressing neomycin resistance. Clonal cell lines were then isolated by transferring single cells to individual wells of a 96-well culture plate: each well contained 0.2 ml of conditioned growth medium filtered from K562 stock cultures, 0.2 ml of fresh growth medium, and 0.4 mg/ml G418. The clonal cell lines were cultured for three to four weeks in growth medium containing 0.4 mg/ml G418 and assayed for P2U receptor, the results shown are from one representative clonal cell line.
(§2) Cytoplasmic Free Calcium Measurements. Cells were sedimented at 200×g for 5 min at room temperature and washed once with 10 ml of Hepes-bufferedsaline (20 mM Hepes, pH 7.4, 120 mM NaCl, 5 mM KCl, 1 mM MgCl2, and 1 mM CaCl2). Washed cells were suspended in Hepes-buffered saline at 5×10^5 cells/ml, and stored (for up to 4 h) at 37° C. The concentration of cytoplasmic free calcium, [Ca^2+ ]i, was measured by dual-excitation spectrofluorometric analysis of cells loaded with fura-2, a fluorescent probe for calcium.

[2] = target: T1, murine P2U receptor (Mus musculus, UniProt P35383); test: cytoplasmic free calcium (fura-2) in K562 cells transfected with P2U receptor cDNA; type: cell-based; set-up: missing the first 6 nucleotides of the 5' untranslated region of the full length cDNA; expressed in transfected cells; host or cells: K562 human leukemia cells; details: for effect on [Ca^2+ ]i in stable transfectants / prevention of ATP-mediated increases in [Ca^2+ ]i (antagonism): concentrations as high as 1 mM, stable transfectants
T1 sequence (P35383 whole entry): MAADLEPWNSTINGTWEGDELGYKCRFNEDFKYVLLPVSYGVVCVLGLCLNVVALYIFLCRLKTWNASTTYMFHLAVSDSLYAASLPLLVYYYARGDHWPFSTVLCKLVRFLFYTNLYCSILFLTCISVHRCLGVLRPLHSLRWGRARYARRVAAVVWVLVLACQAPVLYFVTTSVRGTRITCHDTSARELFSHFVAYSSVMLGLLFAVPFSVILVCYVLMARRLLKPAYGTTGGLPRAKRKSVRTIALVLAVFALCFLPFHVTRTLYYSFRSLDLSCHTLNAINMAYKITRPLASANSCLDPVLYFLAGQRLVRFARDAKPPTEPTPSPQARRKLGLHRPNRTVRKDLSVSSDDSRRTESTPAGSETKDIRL
Excerpt: as §1
To generate transient transfectants, K562 cells were transfected as above with 40 μg unlinearized plasmid pCCM6×1 or pP2R (Lustig et al., supra 1993). Cells were incubated for 48 h at 37° C. in 100 mm culture dishes containing 12 ml of growth medium and assayed for P2U receptor activity.
as §2

[3] = target: T2, human P2U receptor (Homo sapiens, UniProt P41231); test: intracellular calcium by fura-2 fluorescence in 1321N1 human astrocytoma cells expressing the cloned HP2U (LHP2USN); type: cell-based; details: for efficacy / effect in concentration-effect curves: HP2U clone expressed in 1321N1 cells
T2 sequence (P41231 whole entry): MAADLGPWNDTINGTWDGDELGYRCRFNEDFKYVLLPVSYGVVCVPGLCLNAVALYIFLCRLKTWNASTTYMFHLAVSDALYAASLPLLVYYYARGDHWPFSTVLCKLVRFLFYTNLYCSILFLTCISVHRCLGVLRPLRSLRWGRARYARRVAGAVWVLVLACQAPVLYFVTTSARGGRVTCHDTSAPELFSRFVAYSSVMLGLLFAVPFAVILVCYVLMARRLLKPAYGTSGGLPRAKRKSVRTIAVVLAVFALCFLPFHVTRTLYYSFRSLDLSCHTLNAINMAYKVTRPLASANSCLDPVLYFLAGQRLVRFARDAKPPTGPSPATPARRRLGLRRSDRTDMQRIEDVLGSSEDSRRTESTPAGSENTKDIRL
Method: (§3) Heteroloqous Expression. A retroviral vector-containing plasmid, pLHP2USN, was constructed by insertion of the cloned CF/T43 cDNA into the EcoRI and XhoI sites of pLXSN (A. Miller and G. Rosman, Biotechniques 7, 980 (1989)). An amphotrophic packaging cell line, PA317, was used to produce the LHP2USN retroviral vector and a control vector containing Neor only (LSN). Clonal human astrocytoma cells 1321N1, UNC strain, generously provided by T. K. Harden (UNC, Chapel Hill, N.C.), were plated at 150,000 cells per 60-mm dish and infected with LHP2USN or LSN (2 hr, 4 ug/ml Polybrene) and after 48 hr selected with 600 ug/ml G418 (Life Technologies, Inc., Gaithersburg, Md., U.S.A.). To assay for receptor activity, intracellular calcium concentration was measured in confluent cells on coverslips by fura-2 fluorescence using microspectrofluorimetry as previously described (S. Mason et al., Br. J. Pharmacol. 103, 1649 (1991)). Measurement of cell inositol phosphate formation was as described by H. Brown et al., Mol. Pharmacol. 40, 648 (1991), in accordance with known techniques.
(§4) A retrovirus expression system was employed to study the cloned CF/T43 HP2U cDNA in 1321N1 human astrocytoma cells. The effect of extracellular nuceotides on intracellular calcium, as measured by fura-2 fluorescence, was assessed in CF/T43 cells, uninfected 1321N1 cells, and 1321N1 cells infected with retroviral vector containing either the cloned HP2U or no insert (LSN).
To examine the pharmacological specifity of the HP2U clone expressed in 1321N1 cells, concentration-effect curves were generated for nucleotides and structural analogues active at P2X, P2Y and P2U receptors (data not shown). […] These concentration-effect relations are very similar to those reported for heterologously expressed murine P2U (Lustig, et al., supra) and virtually indistinguishable from data (not shown) generated for the endogenous CF/T43 and HT-29 receptors. Clearly, the agonist specifities fit the definition of the P2U receptor.

[4] = target: T1, murine P2U receptor; set-up: host or cells: Xenopus oocytes; details: Lustig et al. 1993, cited from earlier work; for stimulation of ^45 Ca^2+ efflux in oocytes: oocytes expressing the cloned receptor
[5] = tested on: 1321N1 human astrocytoma cells (uninfected or LSN-infected); test: intracellular calcium by fura-2 fluorescence in uninfected or LSN-infected 1321N1 control cells; type: cell-based; details: uninfected or LSN-infected controls
Method: as §3, §4

[6] = target: T2, human P2U receptor; test: inositol phosphate formation in 1321N1 cells expressing LHP2USN; type: cell-based; details: HP2U-1321N1 cells; apyrase in the medium during cell-labeling step
Method: as §3
To test this possibility more directly, we measured inositol phosphate formation. […] We hypothesized that during the lengthy labeling period 1321N1 cells released 5'-nucleotides into the medium in quantities sufficient to "self-activate" the receptor. […] Thus, it appears the cells are persistently stimulated by nucleotides in an autocrine fashion. The mode of release of nucleotides from the astrocytoma cells and the biological consequences of the persistent autocrine activation are unknown. To facilitate comparison with controls, the inositol phosphate studies were performed on cells pretreated with apyrase.

[7] = target: T3, P2U receptor of CF/T43 cells (Homo sapiens, UniProt P41231); test: intracellular calcium by fura-2 fluorescence in CF/T43 cells (endogenous receptor); type: cell-based; details: pretreatment
T3 construct: fura-2 calcium
T3 sequence (P41231 whole entry): as above
Method: as §3, §4

Compound	effect on [Ca^2+ ]i in untransfected K562 cells [1]	effect on [Ca^2+ ]i in stable transfectants [2]	prevention of ATP-mediated increases in [Ca^2+ ]i (antagonism) [2]	other results
CSc1nc(N)c2ncn([C@@H]3O[C@H](COP(=O)(O)OP(=O)(O)OP(=O)(O)O)[C@@H](O)[C@H]3O)c2n1 [2-MeSATP, 2-methylthioATP]				elevation of [Ca^2+ ]i in untransfected K562 cells (P2T receptor) [1]: elevated [Ca^2+ ]i; agonist activity at the P2U receptor ([2]; K562 stable transfectants): do not appear to act as agonists of the P2U receptor; efficacy / effect in concentration-effect curves [3]: had little effect; stimulation of ^45 Ca^2+ efflux in oocytes [4]: did not stimulate
Nc1ncnc2c1ncn2[C@@H]1O[C@H](COP(=O)(O)OP(=O)(O)O)[C@@H](O)[C@H]1O [ADP]				elevation of [Ca^2+ ]i in untransfected K562 cells (P2T receptor) [1]: elevated [Ca^2+ ]i; agonist activity at the P2U receptor ([2]; K562 stable transfectants): do not appear to act as agonists of the P2U receptor; stimulation of ^45 Ca^2+ efflux in oocytes [4]: did not stimulate
Nc1ncnc2c1ncn2[C@@H]1O[C@H](COP(=O)(O)O)[C@@H](O)[C@H]1O [AMP]	had no effect	had no effect	did not prevent ATP-mediated increases	
Nc1ncnc2c1ncn2[C@@H]1O[C@H](COP(=O)(O)OP(=O)(O)OP(O)(O)=S)[C@@H](O)[C@H]1O [ATPγS]				agonist activity at the P2U receptor ([2]; K562 stable transfectants): relatively potent agonist; pEC50 ([2]; K562 stable transfectants, read-out: EC50 for increases in [Ca^2+ ]i): ~5.02; agonist activity at the P2U receptor in Xenopus oocytes ([4]; Xenopus oocytes): relatively potent agonist
Nc1ncnc2c1ncn2[C@@H]1O[C@H](COP(=O)(O)OP(=O)(O)OP(=O)(O)O)[C@@H](OC(=O)c2ccc(C(=O)c3ccccc3)cc2)[C@H]1O [BzATP, 3'-O-(4-benzoyl)benzoyl adenosine 5'-triphosphate]				agonist activity at the P2U receptor ([2]; K562 stable transfectants): relatively weak agonists compared to ATP and UTP
O=C(O[C@H]1[C@@H](O)[C@H](n2ccc(=O)[nH]c2=O)O[C@@H]1COP(=O)(O)OP(=O)(O)OP(=O)(O)O)c1ccc(C(=O)c2ccccc2)cc1 [BzUTP, 3'-O-(4-benzoyl)benzoyl uridine 5'-triphosphate]				agonist activity at the P2U receptor ([2]; K562 stable transfectants): relatively weak agonists compared to ATP and UTP
Nc1ccn([C@@H]2O[C@H](COP(=O)(O)OP(=O)(O)OP(=O)(O)O)[C@@H](O)[C@H]2O)c(=O)n1 [CTP]	had no effect	had no effect	did not prevent ATP-mediated increases	
Nc1nc2c(ncn2[C@@H]2O[C@H](COP(=O)(O)OP(=O)(O)OP(=O)(O)O)[C@@H](O)[C@H]2O)c(=O)[nH]1 [GTP]	had no effect	had no effect	did not prevent ATP-mediated increases	
Cc1cn([C@H]2C[C@H](O)[C@@H](COP(=O)(O)OP(=O)(O)OP(=O)(O)O)O2)c(=O)[nH]c1=O [TTP]	had no effect	had no effect	did not prevent ATP-mediated increases	
O=c1ccn([C@@H]2O[C@H](COP(=O)(O)OP(=O)(O)O)[C@@H](O)[C@H]2O)c(=O)[nH]1 [UDP]	had no effect	had no effect	did not prevent ATP-mediated increases	
Nc1ncnc2c1ncn2[C@@H]1O[C@H](CO)[C@@H](O)[C@H]1O [adenosine]	had no effect	had no effect	did not prevent ATP-mediated increases	
C[N+](C)(C)CCOC(N)=O [carbachol]				[Ca^2+ ]i response of uninfected or LSN-infected 1321N1 cells [5]: elicited responses in each case
Nc1ncnc2c1ncn2[C@@H]1O[C@H](COP(=O)(O)CP(=O)(O)OP(=O)(O)O)[C@@H](O)[C@H]1O [α,β-MeATP]				efficacy / effect in concentration-effect curves [3]: had little effect
Nc1ncnc2c1ncn2[C@@H]1O[C@H](COP(=O)(O)OP(=O)(O)NP(=O)(O)O)[C@@H](O)[C@H]1O [β,γ imidoATP]	had no effect	had no effect	did not prevent ATP-mediated increases	
Nc1ncnc2c1ncn2[C@@H]1O[C@H](COP(=O)(O)OP(=O)(O)CP(=O)(O)O)[C@@H](O)[C@H]1O [β,γ methyleneATP]	had no effect	had no effect	did not prevent ATP-mediated increases	
apyrase				baseline inositol phosphate levels [6]: reduced the baseline inositol phosphate levels to values near those of controls
pertussis toxin				inhibition of ATP-stimulated intracellular Ca^2+ mobilization ([3]; HP2U-1321N1 cells, pretreatment): 20-30%; inhibition of ATP-stimulated intracellular Ca^2+ mobilization [7]: 20-30%
